The values that follow come from patent publication US10563243B2, “Bioavailability of metal ions” (priority 2014, dated 2020).

For data set [1] the following is noted: cited from earlier work.
Data set [2] concerns mixture of Actinomyces viscosus, Lactobacillus casei, Streptococcus oralis, Fusobacterium nucleatum, and Veillnoella parvula. The data set can be described thus: Zinc/copper bioavailability assay: bacterial viability by resazurin fluorescence, oral bacterial mixture. On the technique in general: Resazurin is reduced to fluorescent resorufin, in cell work by metabolically active cells.
Protocol: (This bacterial mixture simulates the complex flora of the oral environment.) Subsequently, the cells were washed and mixed with 5 μg/ml resazurin solution. The fluorescence of the samples was read at 560 nm excitation and at 590 nm emission, and compared to standardized mixtures of viable and non-viable bacteria in order to determine the percentage of the total bacterial population that remained viable after treatment. Each salt was tested at two different concentrations of zinc. The total amount of zinc was consistent between the different salts.
The amount of soluble zinc in each solution was also determined by centrifuging the solutions to remove insoluble zinc, and by testing the supernatant using ICP-AA (inductively coupled plasma with atomic absorption).

Data set [3] concerns mixture of Escherichia coli (45%), Staphylococcus aureus (45%) and Serratia marcescens (10%). The data set can be described thus: Zinc bioavailability assay: bacterial viability by resazurin fluorescence, skin bacterial mixture. In kind it is cell-based. The following applies: Table 5; 0.4% ZnO, 0.8% Zn Citrate, or mix, in deionized water; Triclosan positive control. The protocol: The incubation and detection methods used were as described in Example 1. […] Triclosan was used as a positive antimicrobial control for the experiment.

Setting [4] is: Table 6, 0.5% elemental copper in deionized water.
Where [5] appears, read: Table 7, 0.05% elemental copper in deionized water.

As to `[Cl][Cu][Cl]` [CuCl2], the “theoretical solubility in water” value in data set [1] was 75.7 g/100 ml. The “% viable” value in data set [2] (setting [4]) is listed as 1.89%; in data set [2] (setting [5]), 11.99%.

`[F][Cu][F]` [CuF2]: the “% viable” value in data set [2] (setting [5]) was 17.82%.

As for `[O]=[Cu]` [CuO], the “% viable” value in data set [2] (setting [4]) was found to be 42.73%; in data set [2] (setting [5]) it was 78.67%.

`O=S(=O)([O-])[O-].[Cu+2]` [CuSO4]: the “theoretical solubility in water” value in data set [1] is reported as 20 g/100 ml. Moreover, the figures for the “% viable” value in data set [2] (setting [4]) and in data set [2] (setting [5]) were 5.82% and 13.98%, respectively.

For `Oc1cc(Cl)ccc1Oc1ccc(Cl)cc1Cl` [Triclosan, reference compound], in data set [3], the “% viable” value came to 18.83%.

For `[O]=[Zn]` [ZnO, zinc oxide], the “% viable” value turned out to be 67.23% in data set [3] and 23.75% in data set [2] (Table 2, zinc salt solution without added citrate).

On to Cu2O, for which, in data set [1], the “theoretical solubility in water” value is on record as “insoluble”.
